Data as given in the NIST ThermoML archive (doi:10.1016/j.jct.2017.11.007).

Assay: mn = molality of the nth substance listed, in mol/kg
Conditions: 74.66 kPa, Liquid; for speed of sound: Frequency=3 MHz, Single path-length method; for mass density: Vibrating tube method

Cc1cc(C)nc([N-]S(=O)(=O)c2ccc(N)cc2)n1.[Na+] + O
Conditions | mass density [kg/m3] | speed of sound [m/s]
278.15 K, m1 = 0.00501 | 1000.54 | 1427.9
278.15 K, m1 = 0.00799 | 1000.88 | 1428.7
278.15 K, m1 = 0.01 | 1001.11 | 1429.2
278.15 K, m1 = 0.01488 | 1001.67 | 1430.3
278.15 K, m1 = 0.01983 | 1002.23 | 1431.3
278.15 K, m1 = 0.02501 | 1002.81 | 1432.3
278.15 K, m1 = 0.02961 | 1003.34 | 1433.5
278.15 K, m1 = 0.03503 | 1003.95 | 1434.6
278.15 K, m1 = 0.0401 | 1004.52 | 1435.7
278.15 K, m1 = 0.04493 | 1005.06 | 1436.6
278.15 K, m1 = 0.04993 | 1005.63 | 1437.7
278.15 K, m1 = 0.05504 | 1006.2 | 1438.8
278.15 K, m1 = 0.05966 | 1006.73 | 1439.9
283.15 K, m1 = 0.00501 | 1000.27 | 1448.8
283.15 K, m1 = 0.00799 | 1000.6 | 1449.4
283.15 K, m1 = 0.01 | 1000.83 | 1449.9
283.15 K, m1 = 0.01488 | 1001.37 | 1450.9
283.15 K, m1 = 0.01983 | 1001.92 | 1451.9
283.15 K, m1 = 0.02501 | 1002.5 | 1452.9
283.15 K, m1 = 0.02961 | 1003.01 | 1453.9
283.15 K, m1 = 0.03503 | 1003.61 | 1455
283.15 K, m1 = 0.0401 | 1004.18 | 1456
283.15 K, m1 = 0.04493 | 1004.71 | 1456.8
283.15 K, m1 = 0.04993 | 1005.27 | 1457.8
283.15 K, m1 = 0.05504 | 1005.83 | 1458.8
283.15 K, m1 = 0.05966 | 1006.35 | 1459.8
288.15 K, m1 = 0.00501 | 999.659 | 1467.2
288.15 K, m1 = 0.00799 | 999.989 | 1467.8
288.15 K, m1 = 0.01 | 1000.21 | 1468.3
288.15 K, m1 = 0.01488 | 1000.75 | 1469.2
288.15 K, m1 = 0.01983 | 1001.29 | 1470.1
288.15 K, m1 = 0.02501 | 1001.86 | 1471.1
288.15 K, m1 = 0.02961 | 1002.36 | 1472
288.15 K, m1 = 0.03503 | 1002.95 | 1473
288.15 K, m1 = 0.0401 | 1003.51 | 1474
288.15 K, m1 = 0.04493 | 1004.03 | 1474.8
288.15 K, m1 = 0.04993 | 1004.58 | 1475.7
288.15 K, m1 = 0.05504 | 1005.14 | 1476.7
288.15 K, m1 = 0.05966 | 1005.65 | 1477.6
293.15 K, m1 = 0.00501 | 998.758 | 1483.5
293.15 K, m1 = 0.00799 | 999.081 | 1484
293.15 K, m1 = 0.01 | 999.302 | 1484.5
293.15 K, m1 = 0.01488 | 999.834 | 1485.3
293.15 K, m1 = 0.01983 | 1000.37 | 1486.2
293.15 K, m1 = 0.02501 | 1000.92 | 1487.1
293.15 K, m1 = 0.02961 | 1001.42 | 1487.9
293.15 K, m1 = 0.03503 | 1002 | 1488.9
293.15 K, m1 = 0.0401 | 1002.55 | 1489.8
293.15 K, m1 = 0.04493 | 1003.07 | 1490.5
293.15 K, m1 = 0.04993 | 1003.61 | 1491.4
293.15 K, m1 = 0.05504 | 1004.16 | 1492.3
293.15 K, m1 = 0.05966 | 1004.66 | 1493.2
298.15 K, m1 = 0.00501 | 997.59 | 1497.7
298.15 K, m1 = 0.00799 | 997.912 | 1498.2
298.15 K, m1 = 0.01 | 998.128 | 1498.6
298.15 K, m1 = 0.01488 | 998.655 | 1499.4
298.15 K, m1 = 0.01983 | 999.182 | 1500.2
298.15 K, m1 = 0.02501 | 999.733 | 1501.1
298.15 K, m1 = 0.02961 | 1000.22 | 1501.9
298.15 K, m1 = 0.03503 | 1000.79 | 1502.8
298.15 K, m1 = 0.0401 | 1001.34 | 1503.6
298.15 K, m1 = 0.04493 | 1001.85 | 1504.3
298.15 K, m1 = 0.04993 | 1002.39 | 1505.2
298.15 K, m1 = 0.05504 | 1002.93 | 1506
298.15 K, m1 = 0.05966 | 1003.42 | 1506.8
303.15 K, m1 = 0.00501 | 996.185 | 1510.1
303.15 K, m1 = 0.00799 | 996.504 | 1510.6
303.15 K, m1 = 0.01 | 996.718 | 1510.9
303.15 K, m1 = 0.01488 | 997.238 | 1511.7
303.15 K, m1 = 0.01983 | 997.76 | 1512.4
303.15 K, m1 = 0.02501 | 998.303 | 1513.2
303.15 K, m1 = 0.02961 | 998.79 | 1514
303.15 K, m1 = 0.03503 | 999.357 | 1514.8
303.15 K, m1 = 0.0401 | 999.892 | 1515.6
303.15 K, m1 = 0.04493 | 1000.4 | 1516.3
303.15 K, m1 = 0.04993 | 1000.93 | 1517.1
303.15 K, m1 = 0.05504 | 1001.47 | 1517.8
303.15 K, m1 = 0.05966 | 1001.95 | 1518.6
308.15 K, m1 = 0.00501 | 994.563 | 1520.7
308.15 K, m1 = 0.00799 | 994.878 | 1521.2
308.15 K, m1 = 0.01 | 995.089 | 1521.5
308.15 K, m1 = 0.01488 | 995.605 | 1522.2
308.15 K, m1 = 0.01983 | 996.12 | 1523
308.15 K, m1 = 0.02501 | 996.661 | 1523.7
308.15 K, m1 = 0.02961 | 997.14 | 1524.4
308.15 K, m1 = 0.03503 | 997.703 | 1525.2
308.15 K, m1 = 0.0401 | 998.234 | 1525.9
308.15 K, m1 = 0.04493 | 998.733 | 1526.6
308.15 K, m1 = 0.04993 | 999.258 | 1527.3
308.15 K, m1 = 0.05504 | 999.792 | 1528
308.15 K, m1 = 0.05966 | 1000.27 | 1528.7
